Experiments:
[1] = tested on: differentiation from Th0 cells to Th2 cells; assay: Inhibitory effect on induction of differentiation from Th0 cells to Th2 cells (DNP-As immunized mice, popliteal lymph node, intracellular cytokine FACS); type: in vivo, BALB/c mice; conditions: for increase in the % Th2 / increase in the Th2/Th1 ratio: BALB/c mice immunized with DNP-As; for % Th1 / % Th2 / Th2/Th1: BALB/c mice immunized with DNP-As/Alum, popliteal lymph node 6 days after immunization, n = 3
Description: Experiment 1 Inhibitory Effect on Induction of Differentiation from Th0 Cells to Th2 Cells
In an experiment to induce the differentiation from Th0 cells to Th2 cells, 9 to 11 week-old female mice of BALB/cCrSlc purchased from Japan SLC, Inc. or of BALB/cAnNCrj purchased from Charles River Japan, Inc. were used.
In an experiment to induce the differentiation from Th0 cells to Th2 cells, a DNP-As (dinitrophenylated Ascaris protein (porcine ascarid extract protein)) was used as an antigen, 10 μg of which and 250 μg of Alum (aluminum hydroxide adjuvant) in physiological saline in the final volume of 50 μl was injected into the soles of the both hind legs of each mouse, whereby effecting immunization. In a negative control group, each animal was treated similarly by an injection of 50 μl of physiological saline. 6 Days after injection, two popliteal lymph nodes were removed from right and left knees, and passed through a metal mesh (200 mesh size) in Hanks' balanced salt solution (HBSS) to prepare a cell suspension. In the group treated with physiological saline, preparations from two animals were combined and subjected to the experiment because of a small cell number. A compound according to the invention was suspended in 0.5% methylcellulose (MC) and 0.1 ml per 20 g mouse was given orally every day over a period from the day of immunization through the 5th day. The immunized vehicle control group and the negative control group were treated with the same volume of 0.5% MC.
Cells prepared from popliteal lymph nodes of these mice were suspended at 1−2×10^6 cells/ml (1–2 ml) in an RPMI 1640 medium (containing 10% fetal bovine serum—FBS and 50 μM 2-mercaptoethanol) and supplemented with PMA (Phorbol 12-Myristate 13-Acetate) at the final concentration of 50 ng/ml and 250 ng/ml A23187 (Ca ionophore) and then incubated at 37° C. in the presence of 5% CO2. After incubating for 4 hours, Brefeldin A was added at the final concentration of 10 μg/ml and the mixture was incubated further for 2 hours. The cells were recovered and washed twice with a staining buffer (PBS containing 1% FBS and 0.1% sodium azide) and suspended in 100 μl of the staining buffer containing 5 μg/ml of Fc Block (rat anti-mouse CD 16/CD32 purified monoclonal antibody, Pharmingen) and incubated on ice for 5 minutes to block the non-specific adsorption of the labeled antibody, and then combined with an equal volume of a Cy-Chrome-labelled rat anti-mouse CD4 monoclonal antibody (Pharmingen) which had been 200-fold diluted with the staining buffer and incubated on ice for 30 minutes. After washing three times with the staining buffer, the cells were suspended in PBS and combined with an equal volume of a fixation solution (4% p-formaldehyde) and incubated at 4° C. overnight, whereby effecting the fixation. The fixed cells thus obtained were washed twice with the staining buffer and suspended in a permeabilazation buffer (PBS containing 1% FBS, 0.5% saponin and 0.1% sodium azide) and incubated on ice for 10 minutes, and then each cell sample was recovered as being divided into two equal portions. Each portion was suspended in 100 μl of the permeabilazation buffer containing 5 μg/ml Fc Block and incubated on ice for 5 minutes to block the non-specific adsorption of the labeled antibody into the cells. One portion was combined with each 100 μl of an FITC-labelled rat anti-mouse IFNγ monoclonal antibody (Pharmingen) and a PE-labeled rat anti-mouse IL-4 monoclonal antibody (Pharmingen) each had been 50-fold diluted with the permeabilazation buffer and incubated on ice for 30 minutes. The other portion, serving as a control representing the non-specific adsorption of the labeled antibody, was combined with each 100 μl of each control antibody at the same concentration, i.e., an FITC-labelled rat IgG1κ purified antibody (Pharmingen) and a PE-labeled rat IgG1κ purified antibody (Pharmingen) to effect the similar staining. […]

[2] = tested on: differentiation from Th0 cells to Th1 cells; assay: Effect on induction of differentiation from Th0 cells to Th1 cells (mice immunized with non-viable Mycobacterium tuberculosis, popliteal lymph node, intracellular cytokine FACS); type: in vivo, C57BL/6 mice; conditions: for % Th1 / % Th2: C57BL/6N mice immunized with non-viable Mycobacterium tuberculosis, popliteal lymph node 6 days after immunization, n = 3; for effect on the increase in the % Th1: CD4 positive T cells, popliteal lymph node, C57BL/6 mice immunized with non-viable Mycobacterium tuberculosis
Description: In an experiment to induce the differentiation from Th0 cells to Th1 cells, 8 week-old female mice of C57BL/6NCrj purchased from Charles River Japan, Inc. were used.
On the other hand, in an experiment to induce the differentiation from Th0 cells to Th1 cells, a non-viable Mycobacterium tuberculosis H37RA (DIFCO) was suspended in physiological saline, and 125 μg/50 μl was used for immunization as described above. In the group treated with physiological saline, the preparations from 4 animals were combined and subjected to the experiment.
Cells prepared from popliteal lymph nodes of these mice were suspended at 1−2×10^6 cells/ml (1–2 ml) in an RPMI 1640 medium (containing 10% fetal bovine serum—FBS and 50 μM 2-mercaptoethanol) and supplemented with PMA (Phorbol 12-Myristate 13-Acetate) at the final concentration of 50 ng/ml and 250 ng/ml A23187 (Ca ionophore) and then incubated at 37° C. in the presence of 5% CO2. After incubating for 4 hours, Brefeldin A was added at the final concentration of 10 μg/ml and the mixture was incubated further for 2 hours. The cells were recovered and washed twice with a staining buffer (PBS containing 1% FBS and 0.1% sodium azide) and suspended in 100 μl of the staining buffer containing 5 μg/ml of Fc Block (rat anti-mouse CD 16/CD32 purified monoclonal antibody, Pharmingen) and incubated on ice for 5 minutes to block the non-specific adsorption of the labeled antibody, and then combined with an equal volume of a Cy-Chrome-labelled rat anti-mouse CD4 monoclonal antibody (Pharmingen) which had been 200-fold diluted with the staining buffer and incubated on ice for 30 minutes. After washing three times with the staining buffer, the cells were suspended in PBS and combined with an equal volume of a fixation solution (4% p-formaldehyde) and incubated at 4° C. overnight, whereby effecting the fixation. The fixed cells thus obtained were washed twice with the staining buffer and suspended in a permeabilazation buffer (PBS containing 1% FBS, 0.5% saponin and 0.1% sodium azide) and incubated on ice for 10 minutes, and then each cell sample was recovered as being divided into two equal portions. Each portion was suspended in 100 μl of the permeabilazation buffer containing 5 μg/ml Fc Block and incubated on ice for 5 minutes to block the non-specific adsorption of the labeled antibody into the cells. One portion was combined with each 100 μl of an FITC-labelled rat anti-mouse IFNγ monoclonal antibody (Pharmingen) and a PE-labeled rat anti-mouse IL-4 monoclonal antibody (Pharmingen) each had been 50-fold diluted with the permeabilazation buffer and incubated on ice for 30 minutes. The other portion, serving as a control representing the non-specific adsorption of the labeled antibody, was combined with each 100 μl of each control antibody at the same concentration, i.e., an FITC-labelled rat IgG1κ purified antibody (Pharmingen) and a PE-labeled rat IgG1κ purified antibody (Pharmingen) to effect the similar staining. After washing three times with the cell membrane permeation buffer and twice with the staining buffer, the cells were suspended in 500 μl of the staining buffer and transferred through a nylon mesh into a FACS analysis tube.
The significant difference was analyzed by Dunnett multiple comparison test and Student t test.

[3] = 2.5 mg/kg orally daily for 6 days
[4] = 10 mg/kg orally daily for 6 days
[5] = 40 mg/kg orally daily for 6 days
[6] = 40 mg/kg orally for consecutive 6 days after immunization, CD4 positive T cells, popliteal lymph node
[7] = 10 mg/kg orally for consecutive 6 days after immunization

Compound | increase in the % Th2 ([1]; 10 mg/kg or higher) | increase in the Th2/Th1 ratio ([1]; 10 mg/kg or higher) | % Th1 [1, 3] [%] | % Th2 [1, 3] [%] | Th2/Th1 [1, 3] | % Th1 [1, 4] [%] | % Th2 [1, 4] [%] | Th2/Th1 [1, 4] | % Th1 [1, 5] [%] | % Th2 [1, 5] [%] | Th2/Th1 [1, 5] | % Th1 ([2]; 40 mg/kg) [%] | % Th2 ([2]; 40 mg/kg) [%] | effect on the increase in the % Th1 [2] | increase in the % Th2 [1, 6] | increase in the Th2/Th1 ratio [1, 6] | increase in the % Th2 [1, 7] | increase in the Th2/Th1 ratio [1, 7] | % Th1 ([2]; 10 mg/kg) [%] | % Th2 ([2]; 10 mg/kg) [%]
CC(C)=CCNc1ccc(-c2cc(C)c(-c3ccc(OCC=C(C)C)nc3)cc2C)c(F)c1 [Compound I-6] | significantly inhibited | significantly inhibited | 0.70 ± 0.02 | 1.41 ± 0.10 | 2.03 ± 0.20 | 0.54 ± 0.05 | 0.15 ± 0.01 | 0.29 ± 0.02 | 0.66 ± 0.02 | 0.03 ± 0.03 | 0.04 ± 0.05 | 1.03 ± 0.10 | 0.03 ± 0.02 | no effect |  |  |  |  |  | 
CC(C)=CCNc1ccc(-c2cc(C)c(-c3cnc(OCC=C(C)C)nc3)cc2C)c(F)c1 [Compound I-55] |  |  |  |  |  |  |  |  | 0.53 ± 0.05 | 0.05 ± 0.02 | 0.09 ± 0.03 |  |  |  | significantly inhibited | significantly inhibited |  |  |  | 
COc1c(C)c(-c2ccc(NCC=C(C)C)cc2)c(C)c(C)c1-c1ccc(OCC=C(C)C)c(F)c1 [Compound I-80] |  |  |  |  |  |  |  |  | 0.29 ± 0.03 | 0.07 ± 0.03 | 0.27 ± 0.12 | 0.93 ± 0.11 | 0.02 ± 0.04 | no effect | significantly inhibited | significantly inhibited |  |  |  | 
COc1c(C)c(-c2ccc(OCC=C(C)C)c(F)c2)c(C)c(C)c1-c1ccc(NCC=C(C)C)cc1 [Compound I-89] |  |  |  |  |  | 0.23 ± 0.02 | −0.04 ± 0.00 | −0.19 ± 0.01 |  |  |  |  |  | no effect |  |  | significantly inhibited | significantly inhibited | 0.70 ± 0.20 | 0.02 ± 0.06
COc1c(C)c(-c2ccc(NCC=C(C)C)cc2)c(C)c(C)c1-c1ccc(OCC(F)(F)F)nc1 [Compound I-90] |  |  |  |  |  |  |  |  | 0.40 ± 0.02 | 0.08 ± 0.03 | 0.22 ± 0.09 |  |  |  | significantly inhibited | significantly inhibited |  |  |  | 
COc1c(C)c(-c2ccc(NCC=C(C)C)c(F)c2)c(OC)c(C)c1-c1ccc(NCC=C(C)C)nc1 [Compound I-102] |  |  |  |  |  |  |  |  | 0.34 ± 0.09 | −0.01 ± 0.01 | −0.05 ± 0.06 | 0.82 ± 0.16 | 0.07 ± 0.04 | no effect | significantly inhibited | significantly inhibited |  |  |  | 
CC(C)=CCNc1ccc(-c2cc(C)c(-c3cnc(OCC=C(C)C)nc3)cc2C)c(C)c1 [Compound I-132] |  |  |  |  |  |  |  |  | 0.46 ± 0.07 | 0.05 ± 0.02 | 0.12 ± 0.04 |  |  |  | significantly inhibited | significantly inhibited |  |  |  | 
COc1c(C)c(-c2ccc(OCC(C)C)c(O)c2)c(C)c(C)c1-c1ccc(NCC=C(C)C)cc1 [Compound I-133] |  |  |  |  |  |  |  |  | 0.45 ± 0.03 | 0.20 ± 0.05 | 0.45 ± 0.09 |  |  |  | significantly inhibited | significantly inhibited |  |  |  | 
